This is an account of results in US12414990B2, “Use of HLA-A*11:01-restricted hepatitis B virus (HBV) peptides for identifying HBV-specific CD8+ T cells” (AGENCY FOR SCIENCE, TECHNOLOGY AND RESEARCH, priority 2019, dated 2025).

Entries after “also recorded” stand apart in the source; their conditions may differ.

The test system of assay [1] is antigen-specific CD8+ T cells. Description: High-dimensional phenotypic profiling of antigen-specific CD8+ T cells (t-SNE, Phenograph, One-SENSE, Scorpius). The format is cell-based, human. Here is the method: Validated antigen-specific CD8+ T cells were exported individually from each donor for dimensionality reduction analysis. Detailed methodology for t-SNE and One-SENSE can be found elsewhere. Briefly, t-SNE and One-SENSE were performed using custom R scripts based on “flowCore” and “Rtsne” packages downloaded from The Comprehensive R Archive Network (CRAN). All data were transformed using the “logicleTransform” function and w=0.25, t=16409, m=4.5, a=0 as input parameters to roughly match scaling historically used in FlowJo. Cellular markers analyzed by t-SNE and One-SENSE were indicated (table S2). For One-SENSE, cellular markers in each T cell category (“Differentiation+TNFR”, “Exhaustion” and “Trafficking”) were subjectively assigned for categorical analysis. Aligned heatplots represent the distribution of marker positive cells in percentage on each “bin” on the axis (category) constructed by cells residing in small ranges of values. Positive population of markers was manually defined and markers of the same category were combined for each dimension using 250 bins.
Logistic regression was performed using the drc R package (v 3.0.1) using a 3-parameters logistic model.

For assay [2], the system named is HLA-A*11:01-restricted antigen-specific CD8+ T cells in patient's PBMC. Description: Highly multiplexed combinatorial pMHC tetramer staining with mass cytometry (epitope mapping, frequency of antigen-specific CD8+ T cells). To be noted: for detection / frequency of epitope-specific CD8+ T cells across patient groups: ex vivo PBMC, groups IT, IA, InA, R, HD, CB.
In assay [3] the test system is virus-specific CD8+ T cells in patient PBMC. As to the kind of experiment: In vitro virus-specific CD8+ T cell expansion by peptide stimulation with intracellular cytokine staining. The class given is cell-based, human. Here is the method:
PBMC from patients were thawed and recovered, and then resuspend in AIM-V medium (with 2% human AB serum, 1% penicillin/streptomycin/L-glutamine, 1% 1M HEPES) (Gibco, Invitrogen) with 20 IU/ml of recombinant human IL-2 (R&D). Cells were pulsed with corresponded HBV or control peptides at 1 μM per 1 million cells in 200 μl medium in 96-well round-bottom tissue culture plate and cultured for 10 days at 37° C. Half of the medium was replaced as supplementary every three days without any peptide. […] After incubation, cells were collected and then stained with the 50-plex pMHC tetramers (table S1) and surface antibodies. Intracellular cytokine staining was performed on the second day as indicated in (table S2). All staining, cellular barcoding, and CD8 T cell enrichment were done in the same manner as ex vivo staining described above.

The mark [4] stands for this setting: Acute resolved (R) patients, patients with detected tetramer+ CD8+ T cells (frequency > 0.002%) / patients in the group, per epitope cluster.
Where [5] appears, read: patients with detected epitope-specific CD8+ T cells / patients tested, Inactive Carrier (InA) group, Freq > 0.002%.
Where [6] appears, read: patients with detected epitope-specific CD8+ T cells / patients tested, Immune Active (IA) group, Freq > 0.002%.
The mark [7] stands for this setting: patients with detected epitope-specific CD8+ T cells / patients tested, Immune Tolerant (IT) group, Freq > 0.002%.
Where [8] appears, read: patients with detected epitope-specific CD8+ T cells / patients tested, acute resolved (R) group, Freq > 0.002%.
[9] abbreviates: Immune Active (IA) patients, donors with tetramer+ CD8+ T cell frequency > 0.002% / donors tested.
Setting [10] is: Immune Tolerant (IT) patients, donors with tetramer+ CD8+ T cell frequency > 0.002% / donors tested.
Setting [11] is: Inactive Carrier (InA) patients, donors with tetramer+ CD8+ T cell frequency > 0.002% / donors tested.
Where [12] appears, read: Immune Active (IA) CHB patients, patients with detected tetramer+ CD8+ T cells (frequency > 0.002%) / patients in the group, per epitope cluster.
Setting [13] is: Immune Tolerant (IT) CHB patients, patients with detected tetramer+ CD8+ T cells (frequency > 0.002%) / patients in the group, per epitope cluster.
Setting [14] is: Inactive Carrier (InA) CHB patients, patients with detected tetramer+ CD8+ T cells (frequency > 0.002%) / patients in the group, per epitope cluster.
Setting [15] is: acute resolved (R) patients, donors with tetramer+ CD8+ T cell frequency > 0.002% / donors tested.

“HBV-C-195v2: HBV core epitope, cluster 283, 1 unique peptide (RSQSPRRRRSK; Hepatitis B virus)”: the “phenotype of tetramer-stained epitope-specific CD8+ T cells” value in assay [1] (ex vivo) was “mostly naïve-like phenotype”. Moreover, in assay [2], the “detection / frequency of epitope-specific CD8+ T cells across patient groups” value was “highest frequencies observed”.

For “LVVDFSQFSR (Hepatitis B virus) [HBV-P-387]”, the “expansion of antigen-specific CD8+ T cells upon peptide stimulation” value in assay [3] (10 days in vitro culture, 1 μM peptide) is “less expanded in IT patients”. Further, the “functional subset of virus-specific CD8+ T cells after antigen recall (One-SENSE)” value in assay [3] (10 days in vitro peptide stimulation, restimulation 7 hours) is given as “multi-functional subset”. Moreover, the “numbers of co-expressed inhibitory receptors on epitope-specific CD8+ T cells” value in assay [1] (Boolean strategy, across patient groups) is “no differences in terms of the numbers accumulated on the cells across patient groups”. Besides, the “proportion of cells with C13-like phenotype (CXCR3+CD27hiCD127hi) within HBVpol387-specific CD8+ T cells” value in assay [1] (IT patients) is given as approximately 80%. The “detection / frequency of epitope-specific CD8+ T cells across patient groups” value in assay [2] was “highest frequencies observed; also recorded: relatively high frequency in CHB and also in half of the HD tested”.

Take STVPCFNPK: the “Hits (Freq > 0.002%) R” value in assay [2] (setting [4]) is 1/12.

As for SVLGPISGHVLK, the “Hits (Freq > 0.002%) InA” value in assay [2] (setting [5]) is 2/13.

Regarding SVQPTFSVQR, the “Hits (Freq > 0.002%) IA” value in assay [2] (setting [6]) was 3/12. The “Hits (Freq > 0.002%) IT” value in assay [2] (setting [7]) is reported as 2/8. For the same substance, in assay [2] (setting [5]), the “Hits (Freq > 0.002%) InA” value was 4/13. For the same substance, the “Hits (Freq > 0.002%) R” value in assay [2] (setting [8]) is recorded as 1/12.

For the substance SVQRNLPFER, the “Hits (Freq > 0.002%) IA” value in assay [2] (setting [6]) is given as 4/12. In assay [2] (setting [7]), the “Hits (Freq > 0.002%) IT” value was 4/8. For the same substance, the “Hits (Freq > 0.002%) InA” value in assay [2] (setting [5]) was 6/13. Besides, the “Hits (Freq > 0.002%) R” value in assay [2] (setting [8]) is listed as 3/12.

On to SVVRRAFPH, for which the “Hits (Freq > 0.002%) IA” value in assay [2] (setting [9]) is 3/12. The “Hits (Freq > 0.002%) IT” value in assay [2] (setting [10]) is given as 1/8. In addition, the “Hits (Freq > 0.002%) InA” value in assay [2] (setting [11]) is 2/13.

For the substance TSGSPIIDK, the “Hits (Freq > 0.002%) IT” value in assay [2] (setting [7]) was 1/8.

In the case of TSMFPSCCCTK, the “Hits (Freq > 0.002%) IA” value in assay [2] (setting [12]) was 2/12. The “Hits (Freq > 0.002%) IT” value in assay [2] (setting [13]) is on record as 1/8. Besides, the “Hits (Freq > 0.002%) InA” value in assay [2] (setting [14]) is 1/13.

Turning to TTDLEAYFK, in assay [2] (setting [6]), the “Hits (Freq > 0.002%) IA” value is on record as 1/12. Moreover, in assay [2] (setting [5]), the “Hits (Freq > 0.002%) InA” value was 3/13. The “Hits (Freq > 0.002%) R” value in assay [2] (setting [8]) is on record as 1/12.

As for TTKRDLGMSK, the “Hits (Freq > 0.002%) IA” value in assay [2] (setting [6]) was 2/12. Also, the “Hits (Freq > 0.002%) IT” value in assay [2] (setting [7]) was 1/8.

With TTSTGPCK, the “Hits (Freq > 0.002%) R” value in assay [2] (setting [4]) is listed as 1/12. In addition, in assay [2] (setting [12]), the “Hits (Freq > 0.002%) IA” value is recorded as 1/12.

Consider TVMDIISRR, for which the “Hits (Freq > 0.002%) IT” value in assay [2] (setting [7]) was 2/8.

With TVNAHQVLPK, the “Hits (Freq > 0.002%) IA” value in assay [2] (setting [9]) was 3/13. For the same substance, the “Hits (Freq > 0.002%) IT” value in assay [2] (setting [10]) is given as 1/12. For the same substance, the “Hits (Freq > 0.002%) R” value in assay [2] (setting [15]) is 2/12.

For TVNETRRLK, the “Hits (Freq > 0.002%) IA” value in assay [2] (setting [12]) is reported as 2/12. In addition, the “Hits (Freq > 0.002%) IT” value in assay [2] (setting [13]) was 1/8. The “Hits (Freq > 0.002%) InA” value in assay [2] (setting [14]) is recorded as 2/13.

TVNHYFQTR: the “Hits (Freq > 0.002%) IA” value in assay [2] (setting [12]) is 4/12. The “Hits (Freq > 0.002%) IT” value in assay [2] (setting [13]) was 5/8. In addition, the “Hits (Freq > 0.002%) InA” value in assay [2] (setting [14]) is given as 5/13.

As to TVPCFNPK, the “Hits (Freq > 0.002%) InA” value in assay [2] (setting [14]) was 1/13.

Turning to TVRAFSRAYHHRINR, in assay [2] (setting [8]), the “Hits (Freq > 0.002%) R” value is on record as 1/12.

As for TVSAISSILSK, in assay [2] (setting [4]), the “Hits (Freq > 0.002%) R” value is recorded as 1/12. The “Hits (Freq > 0.002%) IA” value in assay [2] (setting [12]) is listed as 2/12. The “Hits (Freq > 0.002%) IT” value in assay [2] (setting [13]) is recorded as 1/8.

In the case of VSAISSILSK, the “Hits (Freq > 0.002%) IA” value in assay [2] (setting [12]) was 1/12.

For VSLMLLYK, in assay [2] (setting [15]), the “Hits (Freq > 0.002%) R” value is on record as 1/12.

VTGGVFLVDK: the “Hits (Freq > 0.002%) IA” value in assay [2] (setting [9]) is on record as 1/12.

For VTKYLPLDK, in assay [2] (setting [4]), the “Hits (Freq > 0.002%) R” value is on record as 2/12. Further, the “Hits (Freq > 0.002%) IT” value in assay [2] (setting [13]) is 1/8. In addition, the “Hits (Freq > 0.002%) InA” value in assay [2] (setting [14]) is 3/13.

As to YVNVNMGLK, in assay [2] (setting [6]), the “Hits (Freq > 0.002%) IA” value is on record as 1/12. Besides, the “Hits (Freq > 0.002%) R” value in assay [2] (setting [8]) is reported as 1/12.

As for YVSLLLLYK, in assay [2] (setting [9]), the “Hits (Freq > 0.002%) IA” value was 2/12. For the same substance, the “Hits (Freq > 0.002%) IT” value in assay [2] (setting [10]) was 2/8. The “Hits (Freq > 0.002%) InA” value in assay [2] (setting [11]) is recorded as 3/13. In addition, in assay [2] (setting [15]), the “Hits (Freq > 0.002%) R” value is recorded as 1/12.
